In patent US20170007561A1, “CONTEMPORANEOUS, HETEROGENEOUSLY-ORIENTED, MULTI-TARGETED THERAPEUTIC MODIFICATION AND/OR MODULATION OF DISEASE BY ADMINISTRATION OF SULFUR-CONTAINING, AMINO ACID-SPECIFIC SMALL MOLECULES” (BioNumerik Pharmaceuticals, Inc., priority 2014, published 2017):
Where two headings read alike, the source gives them in different places. One block for each molecule: values may come before it.

Key:
[1] = test system: mammalian thioredoxin reductase (TrxR); conditions: cited from earlier work
[2] = single oral dose of 100 mg to healthy volunteers; cited from earlier work
[3] = target: T1, TrxR/Trx system (Homo sapiens, UniProt P10599); assay: TrxR/Trx NADPH oxidation assay; format: biochemical; conditions: increasing concentrations of test substance
T1 construct: purchased Sigma (Trx); American Diagnostica (bovine TrxR)
T1 sequence (P10599 1-105): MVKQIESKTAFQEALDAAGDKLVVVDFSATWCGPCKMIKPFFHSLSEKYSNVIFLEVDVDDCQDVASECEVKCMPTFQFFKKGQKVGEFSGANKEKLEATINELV
Excerpt: (Note: error bars are small and may be obscured by the symbols). […] (Note: error bars were omitted but assays were run in quadruplicate with typical errors of 5-8% between individual replicates). […] Panel D: Initial velocity reaction rates corresponding to progress curves shown in Panel C. With time, Trx-mesna and Trx-GSH are converted back to apo-Trx by Trx reductase (see also, FIG. 69, Panel E).

[4] = target: T2, bovine TrxR (Bos taurus, UniProt O62768); assay: TrxR NADPH oxidation assay without Trx (Reaction A); format: biochemical; conditions: TrxR alone + NADPH, no Trx
T2 construct: purchased American Diagnostica
T2 sequence (O62768 1-499): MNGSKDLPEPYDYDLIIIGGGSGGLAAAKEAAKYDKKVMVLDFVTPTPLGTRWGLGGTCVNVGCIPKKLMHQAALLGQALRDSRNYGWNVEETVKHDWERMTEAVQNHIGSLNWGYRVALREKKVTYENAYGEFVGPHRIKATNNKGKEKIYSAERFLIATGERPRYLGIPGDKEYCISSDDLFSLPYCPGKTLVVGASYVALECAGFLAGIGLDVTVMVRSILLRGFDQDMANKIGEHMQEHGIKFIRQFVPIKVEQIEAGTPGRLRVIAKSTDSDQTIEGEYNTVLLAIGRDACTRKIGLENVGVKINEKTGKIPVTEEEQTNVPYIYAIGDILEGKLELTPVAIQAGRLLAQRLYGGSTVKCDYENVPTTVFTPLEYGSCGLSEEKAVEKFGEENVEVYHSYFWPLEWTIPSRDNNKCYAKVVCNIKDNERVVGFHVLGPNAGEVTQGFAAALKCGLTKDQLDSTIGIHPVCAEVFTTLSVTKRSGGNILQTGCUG

[5] = target: T790M EGFR kinase (Homo sapiens, UniProt P00533, T790M); assay: EGFR kinase assay (ADP-glo, polyGT substrate), T790M mutant; format: biochemical; conditions: for IC50: read-out: IC50, inhibition of T790M EGFR kinase; for effect on Erlotinib inhibition of T790M EGFR kinase activity: heteroconjugate in combination with Erlotinib, 10 μM and/or 100 μM ATP
[6] = target: T3, glutathione reductase (GR) (Homo sapiens, UniProt P00390); conditions: cited from earlier work
T3 sequence (P00390 44-522): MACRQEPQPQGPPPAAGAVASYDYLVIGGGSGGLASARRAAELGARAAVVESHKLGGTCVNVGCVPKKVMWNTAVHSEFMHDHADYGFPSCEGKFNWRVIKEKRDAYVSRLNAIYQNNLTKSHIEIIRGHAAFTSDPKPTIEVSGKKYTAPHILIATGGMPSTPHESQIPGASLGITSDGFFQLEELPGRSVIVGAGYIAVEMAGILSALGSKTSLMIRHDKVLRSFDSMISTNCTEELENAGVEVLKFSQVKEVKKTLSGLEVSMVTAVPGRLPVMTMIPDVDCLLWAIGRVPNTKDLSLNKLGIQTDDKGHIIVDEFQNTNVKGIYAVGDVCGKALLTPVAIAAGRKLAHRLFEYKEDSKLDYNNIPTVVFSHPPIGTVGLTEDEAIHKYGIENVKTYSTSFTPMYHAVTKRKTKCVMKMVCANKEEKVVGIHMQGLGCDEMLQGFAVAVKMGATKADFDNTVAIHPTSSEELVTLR

[7] = test system: bovine brain microtubule protein (α-/β-tubulin); assay: Microtubule protein polymerization assay (OD350); format: biochemical; conditions: for protection against monoaquocisplatin-induced loss of microtubule protein polymerization: preincubated with monoaquocisplatin (36 μM), mesna or cysteine 200 μM; for effect on microtubule protein polymerization: sodium chloride 32 mM control
[8] = target: ErbB-3 (Homo sapiens, UniProt P21860); design: key: the “+” and “−” symbols signify the ability and inability to activate each of the ErbB receptors, respectively; the “+” and “−” symbols signify the ability and inability to activate each of the ErbB receptors, respectively; conditions: cited from earlier work
[9] = target: ErbB-2 (Homo sapiens, UniProt P04626); design: key: the “+” and “−” symbols signify the ability and inability to activate each of the ErbB receptors, respectively; the “+” and “−” symbols signify the ability and inability to activate each of the ErbB receptors, respectively; conditions: cited from earlier work
[10] = target: ErbB-4 (Homo sapiens, UniProt Q15303); design: key: the “+” and “−” symbols signify the ability and inability to activate each of the ErbB receptors, respectively; the “+” and “−” symbols signify the ability and inability to activate each of the ErbB receptors, respectively; conditions: cited from earlier work
[11] = target: ErbB-1 (Homo sapiens, UniProt P00533); conditions: cited from earlier work

Sequence of ErbB-4 (Q15303 26-1308, species assumed): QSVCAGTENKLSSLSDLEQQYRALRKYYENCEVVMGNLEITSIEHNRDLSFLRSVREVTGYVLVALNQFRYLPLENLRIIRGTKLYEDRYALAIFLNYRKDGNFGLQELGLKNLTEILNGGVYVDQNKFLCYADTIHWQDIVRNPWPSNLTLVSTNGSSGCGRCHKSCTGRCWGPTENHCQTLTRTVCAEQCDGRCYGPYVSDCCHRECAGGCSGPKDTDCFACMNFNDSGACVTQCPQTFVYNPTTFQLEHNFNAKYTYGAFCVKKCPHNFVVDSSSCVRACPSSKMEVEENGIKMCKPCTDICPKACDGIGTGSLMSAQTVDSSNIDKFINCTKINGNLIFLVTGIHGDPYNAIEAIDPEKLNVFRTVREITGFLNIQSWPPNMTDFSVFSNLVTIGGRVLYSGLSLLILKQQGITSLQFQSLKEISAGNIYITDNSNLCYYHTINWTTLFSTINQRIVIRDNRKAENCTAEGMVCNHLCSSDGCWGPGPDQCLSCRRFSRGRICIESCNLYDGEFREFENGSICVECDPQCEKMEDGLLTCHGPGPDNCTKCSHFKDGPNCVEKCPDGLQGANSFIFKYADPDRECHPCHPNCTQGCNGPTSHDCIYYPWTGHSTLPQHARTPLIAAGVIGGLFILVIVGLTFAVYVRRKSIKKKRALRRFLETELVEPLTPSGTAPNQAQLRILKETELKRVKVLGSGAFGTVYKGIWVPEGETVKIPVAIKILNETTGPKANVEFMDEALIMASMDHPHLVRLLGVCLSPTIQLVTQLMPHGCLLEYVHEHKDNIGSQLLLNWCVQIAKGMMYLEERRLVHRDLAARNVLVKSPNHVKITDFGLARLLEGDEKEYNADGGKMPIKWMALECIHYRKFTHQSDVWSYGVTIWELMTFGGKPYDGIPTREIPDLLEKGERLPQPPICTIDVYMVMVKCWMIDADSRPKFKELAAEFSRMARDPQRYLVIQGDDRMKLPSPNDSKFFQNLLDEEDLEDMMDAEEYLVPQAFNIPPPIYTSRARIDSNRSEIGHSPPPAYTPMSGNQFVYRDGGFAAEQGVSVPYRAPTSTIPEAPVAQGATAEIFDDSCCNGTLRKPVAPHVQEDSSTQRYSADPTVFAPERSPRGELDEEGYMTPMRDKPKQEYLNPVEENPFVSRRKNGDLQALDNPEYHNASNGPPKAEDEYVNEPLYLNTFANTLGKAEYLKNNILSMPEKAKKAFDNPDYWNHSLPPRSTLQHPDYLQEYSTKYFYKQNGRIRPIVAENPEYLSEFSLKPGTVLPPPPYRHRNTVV

Molecule: CC1=C(/C=C/C(C)=C/C=C/C(C)=C\C(=O)O)C(C)(C)CCC1 [13-cis-retinoic acid]
Inhibition of TrxR [1]: irreversible inhibition of TrxR

Molecule: C#Cc1cccc(Nc2ncnc3cc(OCCOC)c(OCCOC)cc23)c1 [Erlotinib, reference compound]
Cmax [2]: 1390 ng/mL

Molecule: NC(CSSCCS(=O)(=O)O)C(=O)O (stereo not drawn) [MSSC, mesna-cysteine disulfide]
NADPH oxidation by TrxR and Trx [3]: increases | NADPH Oxidation, Reaction A ([4]; disulfide 0.5 mM): 0.2 ± 0.03 nmol/min/mL

Molecule: NC(CSSCCS(=O)(=O)O)C(=O)NC(CCC(=O)O)C(=O)O (stereo not drawn) [MSSCE, mesna-cysteinyl glutamate disulfide]
NADPH Oxidation, Reaction A ([4]; disulfide 0.5 mM): 0.3 ± 0.02 nmol/min/mL

Molecule: NC(CSSCCS(=O)(=O)O)C(=O)NCC(=O)O (stereo not drawn) [MSSCG, mesna-cysteinyl glycine disulfide]
NADPH Oxidation, Reaction A ([4]; disulfide 0.5 mM): 0.2 ± 0.04 nmol/min/mL

Molecule: NC(CSSCCS(=O)(=O)O)C(=O)O (stereo not drawn) [Mesna-Cysteine]
IC50 ([5]; 10 μM ATP): 3760 ± 260 µM | IC50 ([5]; 100 μM ATP): 3030 ± 280 µM | effect on Erlotinib inhibition of T790M EGFR kinase activity [5]: effectively potentiated

Molecule: NC(CSSCCS(=O)(=O)O)C(=O)NC(CCC(=O)O)C(=O)O (stereo not drawn) [Mesna-Cysteinylglutamate]
IC50 ([5]; 10 μM ATP): 1090 ± 190 µM | IC50 ([5]; 100 μM ATP): 1050 ± 80 µM | effect on Erlotinib inhibition of T790M EGFR kinase activity [5]: effectively potentiated

Molecule: NC(CSSCCS(=O)(=O)O)C(=O)NCC(=O)O (stereo not drawn) [Mesna-Cysteinylglycine]
IC50 ([5]; 10 μM ATP): 510 ± 10 µM | IC50 ([5]; 100 μM ATP): 410 ± 50 µM | effect on Erlotinib inhibition of T790M EGFR kinase activity [5]: effectively potentiated

Molecule: NC(CCC(=O)NC(CSSCCS(=O)(=O)O)C(=O)NCC(=O)O)C(=O)O (stereo not drawn) [Mesna-Glutathione]
IC50 ([5]; 10 μM ATP): 1280 ± 290 µM | IC50 ([5]; 100 μM ATP): 1170 ± 10 µM | effect on Erlotinib inhibition of T790M EGFR kinase activity [5]: effectively potentiated

Molecule: CS(=O)(=O)OCCCCOS(C)(=O)=O [busulfan]
Inhibition of GR [6]: not GR | Inhibition of TrxR [1]: irreversibly inhibited TrxR in a concentration- and time-dependent manner

Molecule: N.N.O=C([O-])C1(C(=O)[O-])CCC1.[Pt+2] [carboplatin]
Inhibition of GR [6]: could not inhibit either TrxR or GR | Inhibition of TrxR [1]: could not inhibit either TrxR or GR

Molecule: O=NN(CCCl)C(=O)NCCCl [carmustine]
Inhibition of GR [6]: can inhibit both GR and Trx | Inhibition of TrxR [1]: can inhibit both GR and Trx

Molecule: O=C(O)CCCc1ccc(N(CCCl)CCCl)cc1 [chlorambucil]
Inhibition of GR [6]: not GR | Inhibition of TrxR [1]: irreversibly inhibited TrxR in a concentration- and time-dependent manner

Molecule: N.N.[Cl][Pt][Cl] [cisplatin]
Inhibition of GR [6]: not GR | Inhibition of TrxR [1]: irreversibly inhibited TrxR

Molecule: O=P1(N(CCCl)CCCl)NCCCO1 (stereo not drawn) [cyclophosphamide]
Inhibition of GR [6]: not GR | Inhibition of TrxR [1]: irreversibly inhibited TrxR in a concentration- and time-dependent manner

Molecule: N[C@@H](CS)C(=O)O [cysteine, reference compound]
effect alone on microtubule protein polymerization ([7]; in the absence of monoaquocisplatin): neither mesna nor cysteine alone (in the absence of monoaquocisplatin) had any effect

Molecule: COc1cccc2c1C(=O)c1c(O)c3c(c(O)c1C2=O)C[C@@](O)(C(C)=O)C[C@@H]3O[C@H]1C[C@H](N)[C@H](O)[C@H](C)O1 [daunorubicin]
Inhibition of TrxR [1]: not inhibitors of TrxR

Molecule: N[C@@H](CCC(=O)O)C(=O)O [glutamate, reference compound]
protection against monoaquocisplatin-induced loss of microtubule protein polymerization [7]: not seen

Molecule: NC(=O)CC[C@H](N)C(=O)O [glutamine, reference compound]
protection against monoaquocisplatin-induced loss of microtubule protein polymerization [7]: not seen

Molecule: O=P1(NCCCl)OCCCN1CCCl (stereo not drawn) [ifosfamide]
Inhibition of TrxR [1]: inhibited TrxR

Molecule: N[C@@H](Cc1ccc(N(CCCl)CCCl)cc1)C(=O)O [melphalan]
Inhibition of GR [6]: not GR | Inhibition of TrxR [1]: irreversibly inhibited TrxR in a concentration- and time-dependent manner

Molecule: N.N.O.[Cl][Pt+] [monoaquocisplatin, reference compound]
effect of extended exposure on microtubule protein polymerization ([7]; monoaquocisplatin 36 μM): loss of microtubule protein's ability to polymerize

Molecule: O=C1[O][Pt]2([NH][C@@H]3CCCC[C@H]3[NH]2)[O]C1=O [oxaliplatin]
Inhibition of GR [6]: not GR | Inhibition of TrxR [1]: irreversibly inhibited TrxR

Molecule: [Cl-].[Na+] [sodium chloride]
effect on microtubule protein polymerization [7]: did not inhibit | effect on microtubule protein polymerization ([7]; listed as NaCl): no effect

Molecule: N.N.[Cl][Pt+2][Cl] [transplatin]
Inhibition of GR [6]: not GR | Inhibition of TrxR [1]: irreversibly inhibited TrxR

Molecule: EGF: growth factor ligand of ErbB receptors
ability to activate ErbB-3 [8]: − | ability to activate ErbB-2 [9]: − | ability to activate ErbB-4 [10]: −

Molecule: HB-EGF: growth factor ligand of ErbB receptors
ability to activate ErbB-3 [8]: − | ability to activate ErbB-1 [11]: + | ability to activate ErbB-2 [9]: − | ability to activate ErbB-4 [10]: +

NADPH Oxidation, Reaction A ([4]; insulin 86 μM): 0.3 ± .03 nmol/min/mL
Molecule: Insulin: positive control disulfide substrate of Trx [reference compound]

Molecule: TGF-α: growth factor ligand of ErbB receptors
ability to activate ErbB-3 [8]: − | ability to activate ErbB-2 [9]: − | ability to activate ErbB-4 [10]: −

Molecule: amphiregulin: growth factor ligand of ErbB receptors
ability to activate ErbB-3 [8]: − | ability to activate ErbB-1 [11]: + | ability to activate ErbB-2 [9]: − | ability to activate ErbB-4 [10]: −

Molecule: betacellulin: growth factor ligand of ErbB receptors
ability to activate ErbB-3 [8]: − | ability to activate ErbB-1 [11]: + | ability to activate ErbB-2 [9]: − | ability to activate ErbB-4 [10]: +

Molecule: epiregulin: growth factor ligand of ErbB receptors
ability to activate ErbB-3 [8]: − | ability to activate ErbB-1 [11]: + | ability to activate ErbB-2 [9]: − | ability to activate ErbB-4 [10]: +

Molecule: neuregulin 1
ability to activate ErbB-3 [8]: + | ability to activate ErbB-1 [11]: − | ability to activate ErbB-2 [9]: − | ability to activate ErbB-4 [10]: +

B1: epigen: growth factor ligand of ErbB receptors (protein, UniProt Q6UW88 23-154, looked up)
Epigen: AAVTVTPPITAQQGNWTVNKTEADNIEGPIALKFSHLCLEDHNSYCINGACAFHHELEKAICRCFTGYTGERCEHLTLTSYAVDSYEKYIAIGIGVGLLLSGFLVIFYCYIRKRCLKLKSPYNVCSGERRPL
ability to activate ErbB-3 [8]: − | ability to activate ErbB-1 [11]: + | ability to activate ErbB-2 [9]: − | ability to activate ErbB-4 [10]: −
